Experiments:
myotonia and myalgia = assay: Previous treatments for myotonia and myalgia (case history)
dystrophic mdx mice = details: injection; mostly via activation of TRPV1 and TRPA1; cited from earlier work
[1] = Patient 6 (CLCN1-congenital myotonia)
[2] = Patient 2 (DM2), suspended also for risk of cardiac arrhythmias

SMILES	myotonia under previous treatment (myotonia and myalgia; [1])	myotonia under previous treatment (myotonia and myalgia; [2])	myalgia under previous treatment (myotonia and myalgia; Patient 2 (DM2))	further results
Cc1ccc(C(=O)C(C)CN2CCCCC2)cc1 (stereo not shown) [tolperisone]	no relevant improvement of myotonia	–	–	–
C=C(C)[C@@H]1CCC(C)=C[C@H]1c1c(O)cc(CCCCC)cc1O [CBD, cannabidiol]	–	–	–	effect in dystrophic mdx mice (dystrophic mdx mice): promoted myotube formation and reduced inflammation
NC(=O)N1c2ccccc2C=Cc2ccccc21 [carbamazepine]	no relevant improvement of myotonia	inefficacy	–	–
CC(C)Cc1ccc(C(C)C(=O)O)cc1 (stereo not shown) [ibuprofen]	–	–	unsuccessfully treated	–
O=C(NCC1CCCCN1)c1cc(OCC(F)(F)F)ccc1OCC(F)(F)F (stereo not shown) [flecainid]	no relevant improvement of myotonia	–	–	–
Cc1cccc(C)c1OCC(C)N (stereo not shown) [mexiletine]	improved the myotonia	inefficacy	–	drug-related side effect of previous treatment (myotonia and myalgia; Patient 6, resolved on drug discontinuation): severe major depression
CC(C)C[C@H](CN)CC(=O)O [pregabalin]	–	inefficacy	unsuccessfully treated	–
COc1ccccc1OCC(O)COC(N)=O (stereo not shown) [methocarbamol]	–	–	unsuccessfully treated	–
Nc1nnc(-c2cccc(Cl)c2Cl)c(N)n1 [lamotrigine]	no relevant improvement of myotonia	–	–	–

Reference: EP3750528A1, “COMPOSITIONS FOR TREATING DYSTROPHIES AND MYOTONIA” (Nexien Biopharma, Inc., priority 2019, dated 2020)
